From patent US20090076049A1, “Novel Spiro [Imidazolidine-4, 3' -Indole] 2, 2', 5' (1H) Triones for Treatment of Conditions Associated with Vanilloid Receptor 1” (AstraZeneca AB, priority 2006, published 2009)

The compounds below were run against T1, hVR1 (Homo sapiens, UniProt Q8NER1) (assay: hVR1 FLIPR (Fluorometric Image Plate Reader) screening assay, IC50 determination). Conditions: transfected CHO cells stably expressing hVR1; Fluo-4 calcium signal; agonist 50 nM capsaicin or MES buffer pH 5.2.
T1 construct: expressed in transfected cells; host or cells: CHO cells, stably transfected
Format: cell-based
Procedure: 1. hVR1 FLIPR (Fluorometric Image Plate Reader) Screening Assay
Transfected CHO cells, stably expressing hVR1 (15,000 cells/well) are seeded in 50 μL media in a black clear bottom 384 plate (Greiner) and grown in a humidified incubator (37° C., 2% CO2), 24-30 hours prior to experiment.
Subsequently, the media is removed from the cell plate by inversion and 2 μM Fluo-4 is added using a multidrop (Labsystems). Following the 40 min dye incubation in the dark at 37° C. and 2% CO2, the extracellular dye present is washed away using an EMBLA (Scatron), leaving the cells in 40 μL of assay buffer (1×HBSS, 10 mM D-Glucose, 1 mM CaCl2, 10 mM HEPES, 10×7.5% NaHCO3 and 2.5 mM Probenecid).
FLIPR Assay—IC50 Determination Protocol
For IC50 determinations the fluorescence is read using FLIPR filter 1 (em […]). A cellular baseline recording is taken for 30 seconds, followed by a 20 μL addition of 10, titrated half-log concentrations of the test compound, yielding cellular concentration ranging from 3 μM to 0.1 nM. Data is collected every 2 seconds for a further 5 min prior to the addition of a VR1 agonist solution: either 50 nM solution of capsaicin or MES (2-[N-morpholino]ethanesulfonic acid) buffer (pH 5.2), by the FLIPR pipettor. The FLIPR continues to collect data for a further 4 min. Compounds having antagonistic properties against the hVR1 will inhibit the increase in intracellular calcium in response to the capsaicin addition. This consequently leading to a reduction in fluorescence signal and providing a reduced fluorescence reading, compared with no compound, buffer controls. Data is exported by the FLIPR program as a sum of fluorescence calculated under the curve upon the addition of capsaicin. Maximum inhibition, Hill slope and IC50 data for each compound are generated.

T1 sequence (Q8NER1 whole entry): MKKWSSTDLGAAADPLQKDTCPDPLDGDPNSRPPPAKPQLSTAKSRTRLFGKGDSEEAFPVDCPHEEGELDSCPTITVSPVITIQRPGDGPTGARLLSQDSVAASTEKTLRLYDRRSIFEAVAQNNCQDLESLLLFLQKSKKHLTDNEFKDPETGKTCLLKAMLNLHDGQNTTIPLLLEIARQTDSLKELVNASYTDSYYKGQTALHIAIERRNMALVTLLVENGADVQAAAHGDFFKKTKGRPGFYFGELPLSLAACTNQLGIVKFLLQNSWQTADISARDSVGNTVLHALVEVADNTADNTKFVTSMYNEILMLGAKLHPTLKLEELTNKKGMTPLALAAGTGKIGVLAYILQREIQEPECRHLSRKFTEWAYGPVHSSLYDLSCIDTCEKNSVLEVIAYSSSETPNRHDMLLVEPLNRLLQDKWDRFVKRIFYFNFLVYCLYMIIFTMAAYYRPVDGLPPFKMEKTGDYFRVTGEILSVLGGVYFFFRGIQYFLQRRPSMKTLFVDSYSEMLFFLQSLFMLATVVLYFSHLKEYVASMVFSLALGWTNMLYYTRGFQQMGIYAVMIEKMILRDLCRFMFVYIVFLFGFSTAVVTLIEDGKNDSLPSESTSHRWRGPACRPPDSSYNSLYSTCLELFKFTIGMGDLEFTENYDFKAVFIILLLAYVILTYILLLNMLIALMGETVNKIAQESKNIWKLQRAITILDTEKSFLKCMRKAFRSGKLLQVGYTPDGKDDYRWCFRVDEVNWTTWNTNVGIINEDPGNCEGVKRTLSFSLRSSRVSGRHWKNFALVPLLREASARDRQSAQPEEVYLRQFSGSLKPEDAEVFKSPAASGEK

Row | IC50 | SMILES
1 | 3 µM | O=C1NC(=O)C2(N1)C(=O)N(C/C=C/c1ccc(Cl)c(Cl)c1)c1ccc(OC(F)(F)F)cc12 (stereo not drawn) [Compound 3]
2 | 2.11 µM | CN1C(=O)N(C)C2(C1=O)C(=O)N(C/C=C/c1ccc(Cl)c(Cl)c1)c1ccccc12 (stereo not drawn) [Compound 5, 1′-[(2E)-3-(3,4-dichlorophenyl)prop-2-en-1-yl]-1,3-dimethyl-2H,5H-spiro[imidazolidine-4,3′-indole]-2,2′,5(1′H)-trione]
3 | 3.01 µM | COCCN1C(=O)N(CCOC)C2(C1=O)C(=O)N(C/C=C/c1ccc(Cl)c(Cl)c1)c1ccccc12 (stereo not drawn) [Compound 7, 1′-[(2E)-3-(3,4-dichlorophenyl)prop-2-en-1-yl]-1,3-bis(2-methoxyethyl)-2H,5H-spiro[imidazolidine-4,3′-indole]-2,2′,5(1′H)-trione]
